Measurements: ChEMBL document CHEMBL1150959 (J Nat Prod, 1998)
The source made the active and inactive calls. The calls are words filed in the database; no cut-off is given here.

Columns and labels:
[1] = target: Prostaglandin G/H synthase 1 (Bos taurus) (UniProt O62698); assay: Inhibition of COX1-catalyzed prostaglandin biosynthesis at 100 ug/ml without preincubation
[2] = Ratio of IC50 for COX2 to IC50 for COX1
[3] = target: Prostaglandin G/H synthase 1 (Bos taurus) (UniProt O62698); assay: Inhibition of COX1-catalyzed prostaglandin biosynthesis 10 mins of preincubation
[4] = target: Prostaglandin G/H synthase 1 (Bos taurus) (UniProt O62698); assay: Inhibition of COX1-catalyzed prostaglandin biosynthesis at 200 ug/ml without preincubation; conditions: TDE = time-dependent effect

Chain of Prostaglandin G/H synthase 1 (Bos taurus) (O62698 whole entry, looked up): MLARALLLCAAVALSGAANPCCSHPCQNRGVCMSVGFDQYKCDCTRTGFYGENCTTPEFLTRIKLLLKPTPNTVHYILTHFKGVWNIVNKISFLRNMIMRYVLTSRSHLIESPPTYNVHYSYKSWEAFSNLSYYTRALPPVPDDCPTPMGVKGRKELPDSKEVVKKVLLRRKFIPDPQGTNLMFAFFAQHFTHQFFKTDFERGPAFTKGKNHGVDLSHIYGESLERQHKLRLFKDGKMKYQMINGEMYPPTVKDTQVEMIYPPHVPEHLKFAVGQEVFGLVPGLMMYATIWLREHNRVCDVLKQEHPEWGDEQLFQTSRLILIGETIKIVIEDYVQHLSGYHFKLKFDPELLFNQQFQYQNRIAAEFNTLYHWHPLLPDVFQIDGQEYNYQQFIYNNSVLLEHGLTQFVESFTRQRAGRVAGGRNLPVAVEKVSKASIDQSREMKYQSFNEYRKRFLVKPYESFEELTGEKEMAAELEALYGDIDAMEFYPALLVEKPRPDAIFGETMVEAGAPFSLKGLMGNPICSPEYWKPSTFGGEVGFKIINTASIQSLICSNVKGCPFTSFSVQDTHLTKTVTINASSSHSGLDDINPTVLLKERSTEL

Activity [1]: Active
Ratio IC50 [2]: 0.6
IC50 [3]: 210 µM
Activity [4]: tde
Compound: C[C@H]1[C@H](C)CC[C@]2(C(=O)O)CC[C@]3(C)C(=CC[C@@H]4[C@@]5(C)CC[C@H](O)C(C)(C)[C@@H]5CC[C@]43C)[C@H]12 [URSOLIC ACID]
